“Also recorded” adds a separate entry of the source.

The subject of data set [1] is PSA and KLK2 promoters in LNCaP cells. Kind of data set: Chromatin immunoprecipitation (ChIP) at AREs of PSA and KLK2 promoters in LNCaP cells. The note with it: for ligand-induced phosphorylation of H3T11 at AREs of PSA and KLK2 promoters: 1×10^−8 M R1881 45 min, FIG. 2d, e; for S5-P CTD pol II at the promoters of PSA and KLK2 / recruitment of RNA polymerase II (α-NTD pol II): Ro318220 1×10^−5 M, FIG. 3f, g. It counts as cell-based. How it is done:
Chromatin Immunoprecipitation ChIP and Re-ChIP experiments were performed as described^5,9. LNCaP cells were cultured for 45 min (FIGS. 1c, 2d, 2e) or 210 min (FIG. 3a, b, f, g) in the presence or absence of 1×10^−8 M R1881 as indicated. Ro318220 (1×10^−5 M) was added to the LNCaP cells (FIG. 3b, g) 60 min before addition of R1881. Three days before harvesting, LNCaP cells were transfected with stealth RNAi (ctr: 5′-[…]-3′ (Sequence Protocol: 5) (SEQ ID NO: 5); PRK1: 5′-[…]-3′ (Sequence Protocol: 6) (SEQ ID NO: 6); Invitrogen) following the manufacturer's instructions. Immunoprecipitation was performed with specific antibodies (α-monoMeH3K9, α-diMeH3K9, α-triMeH3K9, α-acetyl-H3K9/K14, α-H3, α-AR (Upstate Biotechnology), α-S5-P CTD pol II, α-phosphoH3T11 (Abcam), α-NTD pol II (N-20, Santa Cruz), α-LSD1^5, α-JMJD2C^4, and α-PRK1) on protein A-Sepharose 4B (GE-Healthcare). For PCR, 1-5 μl out of 50 μl DNA extract was used. PCR primers for ARE I+II (PSA-459/-121), ARE III (PSA-4288/-3922), KLK2 (−343/-90), GAPDH, and U6 were described previously^5. Western Blot Analysis

Data set [2] has as its system endogenous PRK1 and AR in LNCaP cells. Kind of data set: Western blot analysis of knockdown in LNCaP cells. In kind it is cell-based. An excerpt: (§1) To initiate our study, we analysed the effect of PRK1 knockdown on the expression of endogenous AR target genes.
To determine whether PRK1 controls phosphorylation of H3T11 at promoters of AR-regulated genes in vivo, LNCaP cells were first transfected with either an unrelated control siRNA or a siRNA directed against PRK1, in the presence or absence of R1881, and then subjected to ChIP. Addition of ligand results in phosphorylation of H3T11 at the AREs of the PSA and KLK2 promoters (FIG. 2d, left panel). Androgen-induced phosphorylation at H3T11 is PRK1-dependent since it is blocked by knockdown of PRK1. […] To corroborate that androgen-induced phosphorylation of H3T11 is executed by PRK1, LNCaP cells were cultivated in the presence or absence of Ro318220 and subjected to ChIP.
Experiments were performed as described^2. Western blots were decorated as indicated.

For the next data set, the system named is PRK1. In words: In vitro kinase assay. In kind it is biochemical. As to the method:
To understand how association of PRK1 and AR with chromatin results in increased gene expression, we tested whether PRK1 directly phosphorylates the N-terminal tail of histone H3. Myc-PRK1 and the flag-tagged kinase dead mutant PRK1 K644E^2 were immunoprecipitated from 293 cell lysates with an α-myc or an α-flag antibody, respectively (FIG. 6a, b), and incubated with bacterially expressed and purified GST-H3 1-44 or GST control protein. GST-H3 1-44 is phosphorylated by PRK1, but not by PRK1 K644E (FIG. 2a).
In addition, we incubated nucleosomes purified from HeLa cells with recombinant PRK1 in the presence or absence of Ro318220. […] This phosphorylation is blocked by Ro318220 (FIG. 2c).
The kinase assays were performed as described^11. 10 μg GST-tagged H3 proteins or 1 μg of nucleosomes purified from HeLa cells^12 were incubated with immunoprecipitated PRK1 proteins (FIG. 2a) or 1 μg purified recombinant PRK1 (FIG. 2b, c; ProQinase GmbH) for 0 to 10 min (FIG. 2c) or 20 min (FIG. 2a, b) at 30° C. in kinase buffer containing 20 mM Tris-HCl pH 7.5, 20 μM ATP, 8 mM MgCl2, and 5 μCi (γ-^32P) ATP. The reaction mixture was analysed by SDS-PAGE followed by autoradiography or Western blotting using antibodies as indicated.

The test system of data set [3] is AR-dependent reporters in LNCaP cells. Kind of data set: AR-dependent reporter (luciferase) assay in LNCaP cells. The note with it: R1881, FIG. 5a, b. It counts as cell-based. How it is done: CV1 and LNCaP cells were cultured and transfected as described^2. The following amounts were transfected per well: 500 ng of MMTV-LUC, Probasin-LUC, or PSA-LUC; 25 ng of AR expression plasmid; 200 ng (FIG. 3e) or 400 ng (FIG. 3c, d) expression plasmids of LSD1 or JMJD2C, 150 ng PRK1 K644E, 1000 ng expression plasmid of miRNA-control, miRNA1-PRK1, or miRNA2-PRK1 (FIG. 5a). Cells were cultivated for 18 hours in the presence or absence of 1×10^−10 M R1881 (Sigma), 2.5×10^−6 M (FIG. 3d) or 4.5×10^−6 M (FIG. 3c) Ro318220 (Roche) as indicated. Luciferase activity was assayed as described^2. All experiments were repeated at least four times in duplicate.

Data set [4] relates to androgen-induced expression of endogenous AR target genes PSA and KLK2 in LNCaP cells. Kind of data set: Quantitative RT-PCR of endogenous AR target genes in LNCaP cells. The note with it: presence or absence of R1881, FIG. 1a, b. It counts as cell-based. How it is done:
as §1
Quantitative RT-PCR and statistical analysis were performed as described^5. The primers for GAPDH, PSA, and KLK2 were described previously^5.

The mark [5] stands for this setting: R1881 210 min, Ro318220 1×10^−5 M 60 min before R1881, stealth RNAi three days before harvesting, FIG. 3a, b.

With “5′-GAAAGUCCUAGAUCCACACGCAAAU-3′ (siRNA; Stealth RNAi from Invitrogen, chemistry not given here) [siRNA directed against PRK1]”, the “ligand-induced phosphorylation of H3T11 at AREs of PSA and KLK2 promoters” value in data set [1] is “blocked”. Besides, in data set [1] (setting [5]), the “ligand-induced acetylation of H3K9/K14” value is “blocked”; the “ligand-induced demethylation of tri-, di-, and monomethyl H3K9” value was “severely impaired”. Besides, in data set [1] (R1881 210 min), the “S5-P CTD pol II at the promoters of PSA and KLK2” value is “loss”; the “recruitment of RNA polymerase II (α-NTD pol II)” value is recorded as “not affected”. The “down-regulation of endogenous PRK1” value in data set [2] (FIG. 1a, 2d right panels) is listed as “depletion is specific”. For the same compound, the “levels of endogenous AR” value in data set [2] (FIG. 2d right panel) was “does not affect”.

On to `Cn1cc(C2=C(c3cn(CCCSC(=N)N)c4ccccc34)C(=O)NC2=O)c2ccccc21` [Ro318220], for which the “ligand-induced phosphorylation of H3T11 at AREs of PSA and KLK2 promoters” value in data set [1] is “efficiently blocks”. Also, the “ligand-induced demethylation of tri-, di-, and monomethyl H3K9” value in data set [1] (setting [5]) is “loss”. Also, in data set [1] (R1881 210 min), the “S5-P CTD pol II at the promoters of PSA and KLK2” value is “loss”; the “recruitment of RNA polymerase II (α-NTD pol II)” value is listed as “not affected”. In addition, the “phosphorylation of GST-H3 1-44 by PRK1” value with PRK1 (immunoprecipitated Myc-PRK1, 20 min at 30° C., FIG. 2a) is listed as “completely blocks”. In addition, in the data set with PRK1 (nucleosomes from HeLa cells, recombinant PRK1, 0 to 10 min, Western blot α-phosphoH3T11, FIG. 2c), the “phosphorylation of nucleosomes at H3T11 by PRK1” value is given as “blocked”. Also, the “ligand-induced expression of AR-dependent reporters” value in data set [3] is reported as “severely reduce; also recorded: strong decrease”. Also, in data set [4], the “androgen-induced expression of endogenous AR target genes (PSA, KLK2)” value was “reduce expression; also recorded: severely impedes”.

For the origin of these results see US8076094B2, “Phosphorylation of histone H3 at threonine 11—a novel epigenetic mark for transcriptional regulation” (Universitaetsklinixum Freiburg, priority 2007, dated 2011).
